Source: US8865715B2, “Substituted 7-(1,2,3-Triazol-4-yl)-pyrrolo[2,3-b]pyrazines” (Merck Patent GmbH, priority 2010, dated 2014)

Experiments:
Format in all cases: biochemical
PDK1 = target: T1, PDK1 (Homo sapiens, UniProt O15530); assay: Test for the inhibition of PDK1 (384-well flashplate, 33P-ATP)
T1 construct: His6 (N)
T1 sequence (O15530 51-556 limits assumed): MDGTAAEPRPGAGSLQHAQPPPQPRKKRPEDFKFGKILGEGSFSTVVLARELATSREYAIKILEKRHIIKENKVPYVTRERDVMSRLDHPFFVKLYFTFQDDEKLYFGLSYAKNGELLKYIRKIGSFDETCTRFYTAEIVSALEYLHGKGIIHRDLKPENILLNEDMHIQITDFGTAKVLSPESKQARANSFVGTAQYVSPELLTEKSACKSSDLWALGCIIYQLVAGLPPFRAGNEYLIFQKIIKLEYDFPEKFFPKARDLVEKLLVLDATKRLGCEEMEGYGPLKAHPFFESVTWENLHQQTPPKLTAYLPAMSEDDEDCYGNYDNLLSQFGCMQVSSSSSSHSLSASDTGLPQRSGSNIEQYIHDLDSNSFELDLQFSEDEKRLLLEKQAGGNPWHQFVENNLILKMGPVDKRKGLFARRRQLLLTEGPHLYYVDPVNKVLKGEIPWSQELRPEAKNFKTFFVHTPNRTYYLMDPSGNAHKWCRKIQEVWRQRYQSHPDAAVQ
Experimental: 4.0 Test for the Inhibition of PDK1
The experimental batches are carried out in a flashplate system with 384 wells/microtitration plate.
In each case, the PDK1 sample His6-PDK1(1-50) (3.4 nM), the PDK1 substrate biotin-bA-bA-[…] (400 nM), 4 μM ATP (with 0.2 μCi of ^33P-ATP/well) and the test substance in 50 μl of conventional experimental solution per well are incubated at 30° C. for 60 min. The test substances are employed in corresponding concentrations (if desired in a dilution series). The control is carried out without test substance. The reaction is stopped using standard methods and washed. The activity of the kinase is measured via the incorporated radioactivity in top count. In order to determine the non-specific kinase reaction (blank value), the experimental batches are carried out in the presence of 100 nM staurosporine.
The radioactivity (decompositions per minute) of the blank value (no use of test substance in the presence of staurosporine) is subtracted from all other radioactivity values. The controls (kinase activity without test substance) are set equal to 100 percent and all other radioactivity values (after subtracting the blank value) are expressed set in relation thereto (for example in % of the control).
IC50 values (50% inhibition) are determined with the aid of statistics programmes, such as, for example, RS1.

IKKε = target: T2, IKKε (Homo sapiens, UniProt Q14164); assay: IKKε-kinase test (IKKepsilon), 384-well flashplate assay
T2 sequence (Q14164 1-716): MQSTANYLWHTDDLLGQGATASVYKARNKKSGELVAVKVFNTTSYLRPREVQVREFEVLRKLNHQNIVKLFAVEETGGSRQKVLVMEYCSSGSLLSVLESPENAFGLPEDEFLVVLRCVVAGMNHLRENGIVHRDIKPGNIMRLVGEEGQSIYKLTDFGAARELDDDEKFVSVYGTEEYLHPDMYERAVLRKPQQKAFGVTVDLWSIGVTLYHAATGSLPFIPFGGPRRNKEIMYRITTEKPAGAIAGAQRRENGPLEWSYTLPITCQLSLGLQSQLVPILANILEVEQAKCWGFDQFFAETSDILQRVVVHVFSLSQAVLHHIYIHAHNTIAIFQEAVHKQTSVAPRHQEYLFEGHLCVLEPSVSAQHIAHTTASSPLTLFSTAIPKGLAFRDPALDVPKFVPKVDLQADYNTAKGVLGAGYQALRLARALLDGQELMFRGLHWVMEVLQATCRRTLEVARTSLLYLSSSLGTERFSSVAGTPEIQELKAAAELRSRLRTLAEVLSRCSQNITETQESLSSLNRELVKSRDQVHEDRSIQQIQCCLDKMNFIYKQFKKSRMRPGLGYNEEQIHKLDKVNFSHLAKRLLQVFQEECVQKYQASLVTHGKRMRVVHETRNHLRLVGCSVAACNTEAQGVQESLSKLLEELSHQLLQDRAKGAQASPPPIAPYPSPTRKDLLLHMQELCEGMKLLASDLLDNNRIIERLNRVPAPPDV
Experimental: IKKε-Kinase Test (IKKepsilon)
The kinase assay is performed as 384-well flashplate assay. 1 nM IKKε, 800 nM biotinylated IκBα(19-42) peptide (biotin-C6-C6-[…]) and 10 μM ATP (with 0.3 μCi of ^33P-ATP/well) are incubated in a total volume of 50 μl (10 mM MOPS, 10 mM magnesium acetate, 0.1 mM EGTA, 1 mM dithiothreitol, 0.02% of Brij35, 0.1% of BSA, 0.1% of BioStab, pH 7.5) with or without test substance at 30° C. for 120 min. The reaction is stopped using […] of 200 mM EDTA solution, filtered off with suction after 30 min at room temperature, and the wells are washed 3 times with 100 μl of 0.9% NaCl solution. The non-specific proportion of the kinase reaction (blank) is determined using 3 μM EMD 1126352 (BX-795). Radioactivity is measured in the Topcount. IC50 values are calculated using RS1.

[1] = target: T3, TANK binding kinase (TBK1) (Homo sapiens, UniProt Q9UHD2); assay: TBK1-kinase test, 384-well flashplate assay
T3 sequence (Q9UHD2 1-729): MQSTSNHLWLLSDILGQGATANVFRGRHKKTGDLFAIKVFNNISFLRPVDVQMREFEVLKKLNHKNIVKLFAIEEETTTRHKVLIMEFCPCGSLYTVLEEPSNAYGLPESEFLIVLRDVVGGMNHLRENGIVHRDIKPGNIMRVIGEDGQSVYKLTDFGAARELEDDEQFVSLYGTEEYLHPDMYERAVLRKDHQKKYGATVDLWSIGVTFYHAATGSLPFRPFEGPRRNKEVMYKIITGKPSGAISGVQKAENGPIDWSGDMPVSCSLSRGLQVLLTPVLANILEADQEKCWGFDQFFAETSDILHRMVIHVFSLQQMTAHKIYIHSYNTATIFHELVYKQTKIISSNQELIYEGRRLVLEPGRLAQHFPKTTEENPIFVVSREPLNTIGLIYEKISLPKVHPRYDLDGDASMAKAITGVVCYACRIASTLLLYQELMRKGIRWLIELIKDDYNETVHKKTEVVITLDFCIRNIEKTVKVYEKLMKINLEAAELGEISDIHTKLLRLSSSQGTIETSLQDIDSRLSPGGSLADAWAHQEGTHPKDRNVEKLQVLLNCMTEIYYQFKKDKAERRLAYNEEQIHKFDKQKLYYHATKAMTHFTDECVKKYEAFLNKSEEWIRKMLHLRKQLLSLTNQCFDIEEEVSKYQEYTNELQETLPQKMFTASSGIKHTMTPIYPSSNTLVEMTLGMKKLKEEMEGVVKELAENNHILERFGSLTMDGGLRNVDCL
Experimental: The kinase assay is performed as 384-well flashplate assay. 0.6 nM TANK binding kinase (TBK1), 800 nM biotinylated MELK-derived peptide (biotin-Ah-Ah-[…]) and 10 μM ATP (with 0.25 μCi of ^33P-ATP/well) are incubated in a total volume of 50 μl (10 mM MOPS, 10 mM magnesium acetate, 0.1 mM EGTA, 1 mM DTT, 0.02% of Brij35, 0.1% of BSA, pH 7.5) with or without test substance at 30° C. for 120 min. The reaction is stopped using […] of 200 mM EDTA solution, filtered off with suction after 30 min at room temperature, and the wells are washed 3 times with 100 μl of 0.9% NaCl solution. The non-specific proportion of the kinase reaction (blank) is determined using 100 nM staurosporine. Radioactivity is measured in the Topcount. IC50 values are calculated using RS1.

`c1ccc(Cn2cc(-c3c[nH]c4nccnc34)nn2)cc1` [Compound A1, 7-(1-benzyl-1H-1,2,3-triazol-4-yl)-5H-pyrrolo[2,3-b]pyrazine] gave an IC50 (PDK1) of 1000 to 10000 nM, an IC50 (IKKε) of 1000 to 10000 nM and an IC50 [1] of 1000 to 10000 nM.
`Cn1cc(-c2cnc3[nH]cc(-c4cn(Cc5ccccc5)nn4)c3n2)cn1` [Compound A2, 7-(1-benzyl-1H-1,2,3-triazol-4-yl)-2-(1-methyl-1H-pyrazol-4-yl)-5H-pyrrolo[2,3-b]pyrazine] was tested, and the IC50 (PDK1) was 0.5 to 1000 nM, the IC50 (IKKε) was 0.5 to 1000 nM and the IC50 [1] was 0.5 to 1000 nM.
With `Cn1cc(-c2cnc3[nH]cc(-c4cn(Cc5cccc(F)c5)nn4)c3n2)cn1` [Compound A3] the IC50 (PDK1) was 0.5 to 1000 nM, the IC50 (IKKε) was 0.5 to 1000 nM and the IC50 [1] was 0.5 to 1000 nM.
In the case of `Cn1cc(-c2cnc3[nH]cc(-c4cn(Cc5ccccc5C#N)nn4)c3n2)cn1` [Compound A4], the IC50 (PDK1) is reported as 0.5 to 1000 nM, the IC50 (IKKε) is reported as 0.5 to 1000 nM and the IC50 [1] is reported as 0.5 to 1000 nM.
`Cn1cc(-c2cnc3[nH]cc(-c4cn(Cc5ccccc5Cl)nn4)c3n2)cn1` [Compound A5] gave an IC50 (PDK1) of 0.5 to 1000 nM, an IC50 (IKKε) of 0.5 to 1000 nM and an IC50 [1] of 0.5 to 1000 nM.
For `Cn1cc(-c2cnc3[nH]cc(-c4cn(Cc5cccc(F)c5F)nn4)c3n2)cn1` [Compound A7], the IC50 (PDK1) was 0.5 to 1000 nM, the IC50 (IKKε) was 0.5 to 1000 nM and the IC50 [1] was 0.5 to 1000 nM.
Work on `Cn1cc(-c2cnc3[nH]cc(-c4cn(Cc5ccc(F)cc5)nn4)c3n2)cn1` [Compound A10] yielded an IC50 (PDK1) of 0.5 to 1000 nM, an IC50 (IKKε) of 0.5 to 1000 nM and an IC50 [1] of 0.5 to 1000 nM.
In the case of `Cn1cc(-c2cnc3[nH]cc(-c4cn(C(CCN5CCCC5)c5ccccc5)nn4)c3n2)cn1` (centres unmarked) [Compound A11, 7-[1-(3-Pyrrolidin-1-yl-1-phenylpropyl)-1H-1,2,3-triazol-4-yl]-2-(1-methyl-1H-pyrazol-4-yl)-5H-pyrrolo[2,3-b]pyrazine], the IC50 (PDK1) is reported as 0.5 to 1000 nM, the IC50 (IKKε) is reported as 0.5 to 1000 nM and the IC50 [1] is reported as 0.5 to 1000 nM.
In the case of `Cn1cc(-c2cnc3[nH]cc(-c4cn(Cc5ccccc5F)nn4)c3n2)cn1` [Compound A12], the IC50 (PDK1) is reported as 0.5 to 1000 nM and the IC50 [1] is reported as 0.5 to 1000 nM.
